Here are results for 14 molecules from patent publication US8097730B2, “Bicyclic heterocycles useful as selective androgen receptor modulators” (Janssen Pharmaceutica N.V., priority 2006, dated 2012).

Structures are written as SMILES. Where two headings read alike, the source gives them in different places.

Test [1] deals with Immature castrated male Sprague Dawley rats; ventral prostate and seminal vesicle. Kind of test: Ventral Prostate and Seminal Vesicle Weight In Vivo Assay (antagonist activity, percent inhibition of testosterone-enhanced tissue weights). Set-up: species or system rat; key to Inhibition of prostate (non-weight prostate weight, mg): level 1 agonist active if it produced greater than or equal to 30% stimulation of levator ani or ventral prostate at 30 mg/kg; level 2 agonist active if it produced greater than or equal to 5% but less than 30% stimulation of levator ani or ventral prostate at 30 mg/kg; listed herein as “inactive” as they did not meet the specified criteria defined above. The conditions noted are these: compound oral once daily for five days with testosterone propionate 2 mg/kg s.c., classes defined at 30 mg/kg; for inhibition in vivo at 30 mg/kg: Rattus norvegicus, 120 h. On the procedure:
Ventral Prostate and Seminal Vesicle Weight In Vivo Assay
Immature (approximately 50 g) castrated male Sprague Dawley rats (Charles River) were treated once daily for five days with test compound ([…], in 30% cyclodextrin or 0.5% methylcellulose vehicle) and with testosterone propionate (given subcutaneously by injection at the nape of the neck at 2 mg/kg, in a volume of 0.1 mL in sesame oil). On the sixth day, the rats were euthanized by asphyxiation in carbon dioxide. Ventral prosatates and seminal vesicles were removed and their wet weights determined. Test compound activity was determined as the percent inhibition of testosterone-enhanced tissue weights, with a vehicle-treated control group set to zero percent and a testosterone alone-treated control group set to 100%.
Representative compounds of the present invention were tested according to the procedure described, with results as listed in Table 4 below.

Test [2] deals with Immature castrated male Sprague Dawley rats; ventral prostate and levator ani. Put plainly: Ventral Prostate and Levator Ani Weight In Vivo Assay (agonist activity, percent stimulation of tissue weight). Particulars: once daily for five days, oral, vehicle = 0%, testosterone alone = 100%, classes defined at 30 mg/kg; for change in vivo at 30 mg/kg: Rattus norvegicus, 120 h. Set-up: species or system rat; key to % Prostate Stimulation: level 1 agonist active if it produced greater than or equal to 30% stimulation of levator ani or ventral prostate at 30 mg/kg; level 2 agonist active if it produced greater than or equal to 5% but less than 30% stimulation of levator ani or ventral prostate at 30 mg/kg; listed herein as “inactive” as they did not meet the specified criteria defined above. The protocol: Ventral Prostate and Levator Ani Weight In Vivo Assay
Immature (approximately 50 g) castrated male Sprague Dawley rats (Charles River) were treated once daily for five days with test compound (usually given orally at 40 mg/kg in a volume of 0.3 mL, in 30% cyclodextrin or 0.5% methylcellulose vehicle) and with testosterone propionate (given subcutaneously by injection at the nape of the neck at 2 mg/kg, in a volume of 0.1 mL in sesame oil). On the sixth day, the rats were euthanized by asphyxiation in carbon dioxide. Ventral prostates and levator ani muscles were removed and their wet weights determined.
Test compound activity was determined as the percent stimulation of tissue weight, with the vehicle-treated control group set to zero percent and the testosterone alone-treated control group set to 100%. A compound was designated as level 1 agonist active if it produced greater than or equal to 30% stimulation of levator ani or ventral prostate at 30 mg/kg. A compound was designated as level 2 agonist active if it produced greater than or equal to 5% but less than 30% stimulation of levator ani or ventral prostate at 30 mg/kg.
Representative compounds of the present invention were tested according to the procedure described, with results as listed in Table 3 below.

The mark [3] stands for this setting: seminal vesicle wet weight, read-out: Inhibition of seminal vesicle (non-weight seminal vesicle weight, mg).
The mark [4] stands for this setting: ventral prostate wet weight, read-out: Inhibition of prostate (non-weight prostate weight, mg).
Where [5] appears, read: levator ani wet weight, read-out: % levator ani Stimulation.
Setting [6] is: ventral prostate wet weight, read-out: % Prostate Stimulation.

As to `CC12CC(C(F)(F)F)=NN1C(=O)N(c1ccc(C#N)c(C(F)(F)F)c1)C2=O` (centres unmarked) [Compound 1, 4-(3a-Methyl-4,6-dioxo-2-trifluoromethyl-3a,4-dihydro-3H-imidazo[1,5-b]pyrazol-5-yl)-2-trifluoromethyl-benzonitrile], the inhibition in vivo at 30 mg/kg in test [1] (setting [3]) and in test [1] (setting [4]) was 5 to 30% throughout. The results for the change in vivo at 30 mg/kg in test [2] (setting [5]) and in test [2] (setting [6]) were at least 30% and 5 to 30%, respectively.
Turning to `C[C@]12CC(C(F)(F)F)=NN1C(=O)N(c1ccc(C#N)c(C(F)(F)F)c1)C2=O` [Compound 2, (R)-4-(3a-Methyl-4,6-dioxo-2-trifluoromethyl-3a,4-dihydro-3H-imidazo[1,5-b]pyrazol-5-yl)-2-trifluoromethyl-benzonitrile], the inhibition in vivo at 30 mg/kg in test [1] (setting [3]) and in test [1] (setting [4]) was 5 to 30% each time. Moreover, the change in vivo at 30 mg/kg in test [2] (setting [5]) was at least 30%; in test [2] (setting [6]), 5 to 30%.
`C[C@@]12CC(C(F)(F)F)=NN1C(=O)N(c1ccc(C#N)c(C(F)(F)F)c1)C2=O` [Compound 3, (S)-4-(3a-Methyl-4,6-dioxo-2-trifluoromethyl-3a,4-dihydro-3H-imidazo[1,5-b]pyrazol-5-yl)-2-trifluoromethyl-benzonitrile]: the inhibition in vivo at 30 mg/kg in test [1] (setting [3]) and in test [1] (setting [4]) was 5 to 30% throughout. The change in vivo at 30 mg/kg in test [2] (setting [5]) and in test [2] (setting [6]) was at least 30% in each case.
For `CC12CC=NN1C(=O)N(c1ccc(C#N)c(C(F)(F)F)c1)C2=O` (centres unmarked) [Compound 4, 4-(3a-Methyl-4,6-dioxo-3a,4-dihydro-3H-imidazo[1,5-b]pyrazol-5-yl)-2-trifluoromethyl-benzonitrile], the inhibition in vivo at 30 mg/kg in test [1] (setting [3]) and in test [1] (setting [4]) was 5 to 30% in each case. Also, the “% levator ani Stimulation” value in test [2] (levator ani wet weight) was “Inactive”. In test [2] (ventral prostate wet weight), the “% Prostate Stimulation” value is “inactive”.
Turning to `CCOC(=O)C1=NN2C(=O)N(c3ccc(C#N)c(C(F)(F)F)c3)C(=O)C2(C)C1` (centres unmarked) [Compound 5, 5-(4-Cyano-3-trifluoromethyl-phenyl)-3a-methyl-4,6-dioxo-3a,4,5,6-tetrahydro-3H-imidazo[1,5-b]pyrazole-2-carboxylic acid ethyl ester], the inhibition in vivo at 30 mg/kg in test [1] (setting [3]) and in test [1] (setting [4]) was 5 to 30% in each case. The “% levator ani Stimulation” value in test [2] (levator ani wet weight) was “Inactive”. Besides, the “% Prostate Stimulation” value in test [2] (ventral prostate wet weight) is “inactive”.
With `CCOC(=O)C1=NN2C(=O)N(c3ccc([N+](=O)[O-])c(C(F)(F)F)c3)C(=O)C2(C)C1` (centres unmarked) [Compound 6, 3a-Methyl-5-(4-nitro-3-trifluoromethyl-phenyl)-4,6-dioxo-3a,4,5,6-tetrahydro-3H-imidazo[1,5-b]pyrazole-2-carboxylic acid ethyl ester], the inhibition in vivo at 30 mg/kg in test [1] (setting [3]) and in test [1] (setting [4]) was 5 to 30% throughout. Also, the “% levator ani Stimulation” value in test [2] (levator ani wet weight) is “Inactive”. In addition, in test [2] (ventral prostate wet weight), the “% Prostate Stimulation” value was “inactive”.
For `CC(=O)Nc1ccc(C2=NN3C(=O)N(c4ccc(C#N)c(C(F)(F)F)c4)C(=O)C3(C)C2)cc1` (centres unmarked) [Compound 7, N-{4-[5-(4-Cyano-3-trifluoromethyl-phenyl)-3a-methyl-4,6-dioxo-3a,4,5,6-tetrahydro-3H-imidazo[1,5-b]pyrazol-2-yl]-phenyl}-acetamide], the inhibition in vivo at 30 mg/kg in test [1] (setting [4]) was 5 to 30%. In addition, the “Inhibition of seminal vesicle (non-weight seminal vesicle weight, mg)” value in test [1] (seminal vesicle wet weight) is “Inactive”. Further, the change in vivo at 30 mg/kg in test [2] (setting [5]) and in test [2] (setting [6]) was 5 to 30% each time.
Consider `CCOC(=O)C1=NN2C(=O)C(=O)N(c3ccc(C#N)c(C(F)(F)F)c3)C(=O)C2(C)C1` (centres unmarked) [Compound 8, 5-(4-Cyano-3-trifluoromethyl-phenyl)-3a-methyl-4,6,7-trioxo-3,3a,4,5,6,7-hexahydro-pyrazolo[1,5-a]pyrazine-2-carboxylic acid ethyl ester], for which the inhibition in vivo at 30 mg/kg in test [1] (setting [3]) was 5 to 30%. Moreover, in test [1] (ventral prostate wet weight), the “Inhibition of prostate (non-weight prostate weight, mg)” value was “inactive”. Also, in test [2] (setting [5]), the change in vivo at 30 mg/kg fell in the range of 5 to 30%. The “% Prostate Stimulation” value in test [2] (ventral prostate wet weight) is “inactive”.
With `C[C@@]12CC(C(F)(F)F)=NN1[S+]([O-])N(c1ccc(C#N)c(C(F)(F)F)c1)C2=O` (stereo partly drawn) [Compound 10, (S)-4-(3a-Methyl-1,3-dioxo-5-trifluoromethyl-3a,4-dihydro-3H-1I4-thia-2,6,6a-triaza-pentalen-2-yl)-2-trifluoromethyl-benzonitrile], the figures for the inhibition in vivo at 30 mg/kg in test [1] (setting [3]) and in test [1] (setting [4]) were 5 to 30% and at least 30%, respectively. The change in vivo at 30 mg/kg in test [2] (setting [5]) and in test [2] (setting [6]) was at least 30% each time.
Consider `C[C@@]12CC(C(F)(F)F)=NN1S(=O)(=O)N(c1ccc(C#N)c(C(F)(F)F)c1)C2=O` [Compound 11, 4-(3a-Methyl-1,1,3-trioxo-5-trifluoromethyl-3a,4-dihydro-3H-1I6-thia-2,6,6a-triaza-pentalen-2-yl)-2-trifluoromethyl-benzonitrile], for which the inhibition in vivo at 30 mg/kg in test [1] (setting [3]) and in test [1] (setting [4]) was 5 to 30% throughout. The change in vivo at 30 mg/kg in test [2] (setting [5]) and in test [2] (setting [6]) was at least 30% throughout.
Consider `CC12COC(=O)N1C(=O)N(c1ccc(Cl)c(C(F)(F)F)c1)C2=O` (centres unmarked) [Compound 12, 6-(4-Chloro-3-trifluoromethyl-phenyl)-7a-methyl-dihydro-imidazo[1,5-c]oxazole-3,5,7-trione], for which the inhibition in vivo at 30 mg/kg in test [1] (setting [3]) and in test [1] (setting [4]) was 5 to 30% in each case. The “% levator ani Stimulation” value in test [2] (levator ani wet weight) was “Inactive”. In addition, the “% Prostate Stimulation” value in test [2] (ventral prostate wet weight) was “inactive”.
As for `CC12CNC(=O)N1C(=O)N(c1ccc(Cl)c(C(F)(F)F)c1)C2=O` (centres unmarked) [Compound 13, 2-(4-Chloro-3-trifluoromethyl-phenyl)-7a-methyl-dihydro-imidazo[1,5-c]imidazole-1,3,5-trione], the inhibition in vivo at 30 mg/kg in test [1] (setting [3]) and in test [1] (setting [4]) was at least 30% in each case. For the same molecule, the “% levator ani Stimulation” value in test [2] (levator ani wet weight) was “Inactive”. For the same molecule, in test [2] (ventral prostate wet weight), the “% Prostate Stimulation” value was “inactive”.
Turning to `CC12CNC(=O)N1C(=O)N(c1ccc(C#N)c(C(F)(F)F)c1)C2=O` (centres unmarked) [Compound 15, 4-(7a-Methyl-1,3,5-trioxo-tetrahydro-imidazo[1,5-c]imidazol-2-yl)-2-trifluoromethyl-benzonitrile], the inhibition in vivo at 30 mg/kg in test [1] (setting [3]) and in test [1] (setting [4]) was at least 30% in each case. For the same molecule, the “% levator ani Stimulation” value in test [2] (levator ani wet weight) is reported as “Inactive”. In addition, the “% Prostate Stimulation” value in test [2] (ventral prostate wet weight) is “inactive”.
`CN1CC2(C)C(=O)N(c3ccc(Cl)c(C(F)(F)F)c3)C(=O)N2C1=O` (centres unmarked) [Compound 16, 2-(4-Chloro-3-trifluoromethyl-phenyl)-6,7a-dimethyl-dihydro-imidazo[1,5-c]imidazole-1,3,5-trione]: the inhibition in vivo at 30 mg/kg in test [1] (setting [3]) and in test [1] (setting [4]) was at least 30% throughout. Moreover, the “% levator ani Stimulation” value in test [2] (levator ani wet weight) was “Inactive”. Besides, the “% Prostate Stimulation” value in test [2] (ventral prostate wet weight) was “inactive”.
